Measured values: US20220347247A1, “USE OF CANNABINOIDS IN THE TREATMENT OF INFLAMMATION AND AGING IN THE SKIN” (priority 2021, published 2022)
“Also recorded” adds a separate entry of the source. Like-named read-outs stand apart in the source and are kept apart here.

How the values were obtained:
[1] = system: PGE2; assay: PGE2 release by PMA-stimulated NHEK (ELISA); assay type: cell-based, human; conditions: for effect on PGE2 release, in words / PGE2 release, % of the control / % of relative inhibition of PGE2 release: PMA-stimulated keratinocytes; for effect on PGE2 release, in words: overall; for PGE2 release, % of the control: highest concentration tested; for % of relative inhibition of PGE2 release: concentration not given
Protocol: (§1) Example 1: Effects of six compounds on normal human epidermal keratinocytes The effects on normal human epidermal keratinocytes (NHEK) were measured by assessing IL-8 and PGE2 release by PMA-stimulated NHEK using specific ELISA kits.
(§2) Keratinocytes were seeded in 96-well plates and cultured for 24 hours in culture medium. […] After pre-incubation, the medium was removed and replaced by assay medium 1 containing or not (stimulated control) the compounds or the reference compound and containing the inducer (PMA tested at 0.5 μg/ml). The cells were then incubated for 24 hours. In parallel, a non-stimulated control condition was performed.
(§3) All experimental conditions were performed in n=3. At the end of incubation, the culture supernatants were collected for IL-8 and PGE2 quantifications.
(§4) IL-8 and PGE2 released in the culture supernatants were measured using specific ELISA kits according to the supplier's instructions.

[2] = system: IL-8; assay: cells; assay type: cell-based, human; conditions: for effect on IL-8 release, in words: PMA-stimulated keratinocytes; for % Relative inhibition of IL-8 release: PMA 0.5 μg/ml
Protocol: as §1, §2, §3, §4

[3] = Homo sapiens, NHEK, 24 h, read-out: % Relative inhibition of IL-8 release
[4] = Homo sapiens, NHEK, 24 h, read-out: % Relative inhibition of PGE2 release
[5] = 1 μM, NHEK, PMA 0.5 μg/ml, 24 h

C=C(C)[C@@H]1CCC(C)=C[C@H]1c1c(O)cc(CCCCC)cc1O [CBD, cannabidiol]
inhibition at 0.1 µM ([1]; Homo sapiens, 0.1 μM, NHEK, PMA 0.5 μg/ml, 24 h, read-out: % Relative inhibition of PGE2 release): 0% | inhibition at 0.3 µM ([1]; Homo sapiens, 0.3 μM, NHEK, PMA 0.5 μg/ml, 24 h, read-out: % Relative inhibition of PGE2 release): -59% | effect on PGE2 release, in words [1]: stimulate PGE2 expression | PGE2 release, % of the control [1]: 185 % of the control | effect on IL-8 release, in words ([2]; 0.3 μM): overstimulated IL-8 release | inhibition at 0.1 µM [2, 3]: 12% | inhibition at 0.3 µM [2, 3]: -44% | inhibition at 1 µM [2, 3]: 18%

C=C(C)[C@@H]1CCC(C)=C[C@H]1c1c(O)cc(CCCCC)c(C(=O)O)c1O [CBDA, cannabidiolic acid]
inhibition at 0.03 µM [1, 4]: -24% | inhibition at 0.1 µM [1, 4]: -50% | inhibition at 0.3 µM [1, 4]: -20% | effect on PGE2 release, in words [1]: did not modulate PGE2 release | inhibition at 0.03 µM [2, 3]: 11% | inhibition at 0.1 µM [2, 3]: 17% | inhibition at 0.3 µM [2, 3]: 0%

CCCCCc1cc(O)c(C/C=C(\C)CCC=C(C)C)c(O)c1 [CBG, cannabigerol]
inhibition at 0.3 µM [1, 4]: 86% | inhibition at 1 µM [1, 4]: > 169% | inhibition at 3 µM [1, 4]: > 159% | effect on PGE2 release, in words [1]: significant at all tested concentrations; also recorded: significantly inhibited | % of relative inhibition of PGE2 release [1]: about 160% | effect on IL-8 release, in words ([2]; 3 μM): strongly inhibited | inhibition at 0.3 µM [2, 3]: 7% | inhibition at 1 µM [2, 3]: 20% | inhibition at 3 µM [2, 3]: 60% | effect on IL-8 release, in words ([2]; overall): significantly inhibited

CCCCCc1cc(O)c(C/C=C(\C)CCC=C(C)C)c(O)c1C(=O)O [CBGA, cannabigerolic acid]
inhibition at 0.03 µM [1, 4]: -17% | inhibition at 0.1 µM [1, 4]: -68% | effect on PGE2 release, in words [1]: stimulate PGE2 expression | PGE2 release, % of the control [1]: 182 % of the control | inhibition at 0.03 µM [2, 3]: 0% | inhibition at 0.1 µM [2, 3]: -7% | inhibition at 0.3 µM [2, 3]: 9%

CCCc1cc(O)c(C/C=C(\C)CCC=C(C)C)c(O)c1C(=O)O [CBGVA, cannabigerovarinic acid]
% Relative inhibition of PGE2 release ([1]; 0.1 μM, NHEK, PMA 0.5 μg/ml, 24 h): 19% | % Relative inhibition of PGE2 release ([1]; 0.3 μM, NHEK, PMA 0.5 μg/ml, 24 h): 65% | % Relative inhibition of PGE2 release [1, 5]: >162% | effect on PGE2 release, in words [1]: significant effect only when tested at the highest concentration; also recorded: inhibited PGE2 release | % of relative inhibition of PGE2 release [1]: about 160% | % Relative inhibition of IL-8 release ([2]; 0.1 μM, NHEK, 24 h): 2% | % Relative inhibition of IL-8 release ([2]; 0.3 μM, NHEK, 24 h): 11% | % Relative inhibition of IL-8 release ([2]; 1 μM, NHEK, 24 h): 9%

COc1ccc2c(c1)c(CC(=O)O)c(C)n2C(=O)c1ccc(Cl)cc1 [Indomethacin, indomethacin, reference compound]
% Relative inhibition of PGE2 release [1, 5]: >169% | inhibition at 1 µM [1, 4]: > 169%

O=C1O[C@H]([C@@H](O)CO)C(O)=C1O [L-Ascorbic acid, reference compound]
inhibition at 50 µg/mL [1, 4]: > 148% | inhibition at 100 µg/mL [1, 4]: > 160% | inhibition at 200 µg/mL [1, 4]: 127% | effect on PGE2 release, in words [1]: overall the same effect at all tested concentrations; also recorded: significantly limited PGE2 release | % of relative inhibition of PGE2 release [1]: ~145% | inhibition at 50 µg/mL [2, 3]: -10% | inhibition at 100 µg/mL [2, 3]: 11% | inhibition at 200 µg/mL [2, 3]: -15%
